From ChEMBL document CHEMBL5584201, “Amphiphilic tribasic galactosamines potentiate rifampicin in Gram-negative bacteria at low Mg++/Ca++concentrations” (Bioorg Med Chem Lett, 2024)
The source made the active and inactive calls. No cut-off for these calls is given here.

Experiments:
Pseudomonas aeruginosa [1] = experiment: Potentiation of rifampicin-induced antibacterial activity against Pseudomonas aeruginosa PAO1 assessed as rifampicin MIC in low salt containing media by Mueller-Hinton broth based assay; assay type: functional
Escherichia coli [2] = experiment: Potentiation of rifampicin-induced antibacterial activity against Escherichia coli ATCC 25922 assessed as fold change in rifampicin MIC in low salt containing media by Mueller-Hinton broth based assay; assay type: functional
Escherichia coli [3] = experiment: Potentiation of rifampicin-induced antibacterial activity against Escherichia coli […] assessed as rifampicin MIC at 2 to 8 microg/ml in high concentration of Ca++ and Mg++ containing media by Mueller-Hinton broth based assay; assay type: functional; conditions: dose 2-8 µg/ml
Escherichia coli [4] = experiment: Potentiation of rifampicin-induced antibacterial activity against Escherichia coli clinical isolate 94393 at 1/4 MIC in low salt containing media by Mueller-Hinton broth based assay; assay type: functional, organism-based
Escherichia coli [5] = experiment: Potentiation of rifampicin-induced antibacterial activity against Escherichia coli ATCC 25922 assessed as rifampicin MIC at 2 to 8 microg/ml in high concentration of Ca++ and Mg++ containing media by Mueller-Hinton broth based assay; assay type: functional; conditions: dose 2-8 µg/ml
Acinetobacter baumannii [6] = experiment: Potentiation of rifampicin-induced antibacterial activity against multidrug resistant Acinetobacter baumannii AB031 at 1/4 MIC in low salt containing media by Mueller-Hinton broth based assay; assay type: functional, organism-based
Pseudomonas aeruginosa [7] = experiment: Potentiation of rifampicin-induced antibacterial activity against Pseudomonas aeruginosa PAO1 assessed as fold change in rifampicin MIC in low salt containing media by Mueller-Hinton broth based assay; assay type: functional
Acinetobacter baumannii [8] = experiment: Potentiation of rifampicin-induced antibacterial activity against Acinetobacter baumannii ATCC 17978 assessed as rifampicin MIC at 16 microg/ml in high concentration of Ca++ and Mg++ containing media by Mueller-Hinton broth based assay; assay type: functional; conditions: dose 16 µg/ml
Escherichia coli [9] = experiment: Potentiation of rifampicin-induced antibacterial activity against Escherichia coli […] assessed as rifampicin MIC at 16 microg/ml in high concentration of Ca++ and Mg++ containing media by Mueller-Hinton broth based assay; assay type: functional; conditions: dose 16 µg/ml
Acinetobacter baumannii [10] = experiment: Potentiation of rifampicin-induced antibacterial activity against Acinetobacter baumannii ATCC 17978 assessed as rifampicin MIC in low salt containing media by Mueller-Hinton broth based assay; assay type: functional
[11] = Cytotoxicity against human HepG2 cells assessed as cell viability at 9 uM relative to control; assay type: toxicity, cell-based; conditions: read-out: Activity
Acinetobacter baumannii [12] = experiment: Potentiation of rifampicin-induced antibacterial activity against Acinetobacter baumannii 92247 assessed as fold change in rifampicin MIC at 2 to 8 microg/ml in high concentration of Ca++ and Mg++ containing media by Mueller-Hinton broth based assay; assay type: functional; conditions: dose 2-8 µg/ml
Acinetobacter baumannii [13] = experiment: Potentiation of rifampicin-induced antibacterial activity against Acinetobacter baumannii ATCC 17978 assessed as fold change in rifampicin MIC at 2 to 8 microg/ml in high concentration of Ca++ and Mg++ containing media by Mueller-Hinton broth based assay; assay type: functional; conditions: dose 2-8 µg/ml
Acinetobacter baumannii [14] = experiment: Potentiation of rifampicin-induced antibacterial activity against multidrug resistant Acinetobacter baumannii clinical isolate 110193 at 1/4 MIC in low salt containing media by Mueller-Hinton broth based assay; assay type: functional, organism-based
Escherichia coli [15] = experiment: Antibacterial activity against Escherichia coli ATCC 25922 in low salt containing media by Mueller-Hinton broth based assay; assay type: functional
Escherichia coli [16] = experiment: Potentiation of rifampicin-induced antibacterial activity against Escherichia coli clinical isolate 107115 at 1/4 MIC in low salt containing media by Mueller-Hinton broth based assay; assay type: functional, organism-based
Escherichia coli [17] = experiment: Potentiation of rifampicin-induced antibacterial activity against Escherichia coli ATCC 25922 assessed as rifampicin MIC at 16 microg/ml in high concentration of Ca++ and Mg++ containing media by Mueller-Hinton broth based assay; assay type: functional; conditions: dose 16 µg/ml
Pseudomonas aeruginosa [18] = experiment: Antibacterial activity against Pseudomonas aeruginosa PAO1 in low salt containing media by Mueller-Hinton broth based assay; assay type: functional
Acinetobacter baumannii [19] = experiment: Antibacterial activity against Acinetobacter baumannii ATCC 17978 in high concentration of Ca++ and Mg++ containing media by Mueller-Hinton broth based assay; assay type: functional
Escherichia coli [20] = experiment: Potentiation of rifampicin-induced antibacterial activity against Escherichia coli […] assessed as fold change in rifampicin MIC at 2 to 8 microg/ml in high concentration of Ca++ and Mg++ containing media by Mueller-Hinton broth based assay; assay type: functional; conditions: dose 2-8 µg/ml
[21] = Cytotoxicity against HEK293 cells assessed as cell viability at 9 uM relative to control; assay type: toxicity, cell-based; conditions: human, read-out: Activity
Acinetobacter baumannii [22] = experiment: Potentiation of rifampicin-induced antibacterial activity against multidrug resistant Acinetobacter baumannii LAC-4 in low salt containing media by Mueller-Hinton broth based assay; assay type: functional, organism-based
Acinetobacter baumannii [23] = experiment: Potentiation of rifampicin-induced antibacterial activity against multidrug resistant Acinetobacter baumannii AB027 at 1/4 MIC in low salt containing media by Mueller-Hinton broth based assay; assay type: functional, organism-based
Escherichia coli [24] = experiment: Potentiation of rifampicin-induced antibacterial activity against Escherichia coli clinical isolate 94474 at 1/4 MIC in low salt containing media by Mueller-Hinton broth based assay; assay type: functional, organism-based
Acinetobacter baumannii [25] = experiment: Potentiation of rifampicin-induced antibacterial activity against Acinetobacter baumannii ATCC 17978 assessed as fold change in rifampicin MIC in low salt containing media by Mueller-Hinton broth based assay; assay type: functional
Escherichia coli [26] = experiment: Potentiation of rifampicin-induced antibacterial activity against Escherichia coli ATCC 25922 assessed as fold change in rifampicin MIC at 16 microg/ml in high concentration of Ca++ and Mg++ containing media by Mueller-Hinton broth based assay; assay type: functional; conditions: dose 16 µg/ml
Escherichia coli [27] = experiment: Potentiation of rifampicin-induced antibacterial activity against Escherichia coli ATCC 25922 assessed as fold change in rifampicin MIC at 2 to 8 microg/ml in high concentration of Ca++ and Mg++ containing media by Mueller-Hinton broth based assay; assay type: functional; conditions: dose 2-8 µg/ml
Escherichia coli [28] = experiment: Antibacterial activity against Escherichia coli ATCC 25922 in high concentration of Ca++ and Mg++ containing media by Mueller-Hinton broth based assay; assay type: functional
Acinetobacter baumannii [29] = experiment: Potentiation of rifampicin-induced antibacterial activity against Acinetobacter baumannii 92247 assessed as fold change in rifampicin MIC at 16 microg/ml in high concentration of Ca++ and Mg++ containing media by Mueller-Hinton broth based assay; assay type: functional; conditions: dose 16 µg/ml
Escherichia coli [30] = experiment: Potentiation of rifampicin-induced antibacterial activity against Escherichia coli […] assessed as fold change in rifampicin MIC at 16 microg/ml in high concentration of Ca++ and Mg++ containing media by Mueller-Hinton broth based assay; assay type: functional; conditions: dose 16 µg/ml
Acinetobacter baumannii [31] = experiment: Potentiation of rifampicin-induced antibacterial activity against Acinetobacter baumannii 92247 assessed as rifampicin MIC at 16 microg/ml in high concentration of Ca++ and Mg++ containing media by Mueller-Hinton broth based assay; assay type: functional; conditions: dose 16 µg/ml
Escherichia coli [32] = experiment: Antibacterial activity against Escherichia coli […] in high concentration of Ca++ and Mg++ containing media by Mueller-Hinton broth based assay; assay type: functional
Escherichia coli [33] = experiment: Potentiation of rifampicin-induced antibacterial activity against Escherichia coli ATCC 25922 assessed as rifampicin MIC in low salt containing media by Mueller-Hinton broth based assay; assay type: functional
Acinetobacter baumannii [34] = experiment: Potentiation of rifampicin-induced antibacterial activity against Acinetobacter baumannii ATCC 17978 assessed as rifampicin MIC at 2 to 8 microg/ml in high concentration of Ca++ and Mg++ containing media by Mueller-Hinton broth based assay; assay type: functional; conditions: dose 2-8 µg/ml
Acinetobacter baumannii [35] = experiment: Potentiation of rifampicin-induced antibacterial activity against multidrug resistant Acinetobacter baumannii clinical isolate 92247 at 1/4 MIC in low salt containing media by Mueller-Hinton broth based assay; assay type: functional, organism-based
Acinetobacter baumannii [36] = experiment: Potentiation of rifampicin-induced antibacterial activity against Acinetobacter baumannii 92247 assessed as rifampicin MIC at 2 to 8 microg/ml in high concentration of Ca++ and Mg++ containing media by Mueller-Hinton broth based assay; assay type: functional; conditions: dose 2-8 µg/ml
Acinetobacter baumannii [37] = experiment: Antibacterial activity against Acinetobacter baumannii ATCC 17978 in low salt containing media by Mueller-Hinton broth based assay; assay type: functional
Acinetobacter baumannii [38] = experiment: Potentiation of rifampicin-induced antibacterial activity against Acinetobacter baumannii ATCC 17978 assessed as fold change in rifampicin MIC at 16 microg/ml in high concentration of Ca++ and Mg++ containing media by Mueller-Hinton broth based assay; assay type: functional; conditions: dose 16 µg/ml
Acinetobacter baumannii [39] = experiment: Antibacterial activity against Acinetobacter baumannii 92247 in high concentration of Ca++ and Mg++ containing media by Mueller-Hinton broth based assay; assay type: functional

Question: Which MIC (Pseudomonas aeruginosa [1]) does the source give for NC[C@H]1O[C@@H](OCCC23CC4CC(CC(C4)C2)C3)[C@H](N)[C@@H](OCc2ccc3ccccc3c2)[C@H]1N here?
Answer: 8 µg/mL

Question: What about the “fold change (FC)” value (Escherichia coli [2]) of the same compound?
Answer: 16

Question: And the MIC (Escherichia coli [3])?
Answer: 4 µg/mL

Question: And the Activity (Escherichia coli [4])?
Answer: Active

Question: What about the MIC (Escherichia coli [5]) of the same compound?
Answer: 2 µg/mL

Question: And the Activity (Acinetobacter baumannii [6])?
Answer: inactive

Question: What about the “fold change (FC)” value (Pseudomonas aeruginosa [7]) of the same compound?
Answer: 2

Question: And the MIC (Acinetobacter baumannii [8])?
Answer: 16 µg/mL

Question: What about the MIC (Escherichia coli [9]) of the same compound?
Answer: 16 µg/mL

Question: And the MIC (Acinetobacter baumannii [10])?
Answer: 4 µg/mL

Question: What about the viability at 9 µM [11] of the same compound?
Answer: 76%

Question: What about the “fold change (FC)” value (Acinetobacter baumannii [12]) of the same compound?
Answer: 2

Question: And the “fold change (FC)” value (Acinetobacter baumannii [13])?
Answer: 1

Question: And the Activity (Acinetobacter baumannii [14])?
Answer: inactive

Question: What about the MIC (Escherichia coli [15]) of the same compound?
Answer: 8 µg/mL

Question: And the Activity (Escherichia coli [16])?
Answer: inactive

Question: And the MIC (Escherichia coli [17])?
Answer: 16 µg/mL

Question: What about the MIC (Pseudomonas aeruginosa [18]) of the same compound?
Answer: 32 µg/mL

Question: And the MIC (Acinetobacter baumannii [19])?
Answer: > 128 µg/mL

Question: And the “fold change (FC)” value (Escherichia coli [20])?
Answer: 1

Question: What about the viability at 9 µM [21] of the same compound?
Answer: 46.7%

Question: What about the Activity (Acinetobacter baumannii [22]) of the same compound?
Answer: inactive

Question: What about the Activity (Acinetobacter baumannii [23]) of the same compound?
Answer: inactive

Question: What about the Activity (Escherichia coli [24]) of the same compound?
Answer: inactive

Question: What about the “fold change (FC)” value (Acinetobacter baumannii [25]) of the same compound?
Answer: >=256

Question: And the “fold change (FC)” value (Escherichia coli [26])?
Answer: 2

Question: And the “fold change (FC)” value (Escherichia coli [27])?
Answer: 1

Question: And the MIC (Escherichia coli [28])?
Answer: > 128 µg/mL

Question: What about the “fold change (FC)” value (Acinetobacter baumannii [29]) of the same compound?
Answer: 64

Question: What about the “fold change (FC)” value (Escherichia coli [30]) of the same compound?
Answer: 8

Question: What about the MIC (Acinetobacter baumannii [31]) of the same compound?
Answer: 16 µg/mL

Question: What about the MIC (Escherichia coli [32]) of the same compound?
Answer: > 128 µg/mL

Question: And the MIC (Escherichia coli [33])?
Answer: 2 µg/mL

Question: And the MIC (Acinetobacter baumannii [34])?
Answer: 4 µg/mL

Question: What about the Activity (Acinetobacter baumannii [35]) of the same compound?
Answer: inactive

Question: What about the MIC (Acinetobacter baumannii [36]) of the same compound?
Answer: 2 µg/mL

Question: What about the MIC (Acinetobacter baumannii [37]) of the same compound?
Answer: 16 µg/mL

Question: What about the “fold change (FC)” value (Acinetobacter baumannii [38]) of the same compound?
Answer: 2

Question: And the MIC (Acinetobacter baumannii [39])?
Answer: > 128 µg/mL
